Measured values: ChEMBL document CHEMBL1828619, “Identification of pyridazin-3-one derivatives as potent, selective histamine H₃ receptor inverse agonists with robust wake activity” (Bioorg Med Chem Lett, 2011)
One block for each molecule: values may come before it. Activity calls are given as the source filed them. The calls are words filed in the database; no cut-off is given here.

Key:
[1] = molecular target: T1, Histamine H3 receptor (Homo sapiens, UniProt Q9Y5N1); test: Displacement of [3H]NAMH from human cloned histamine 3 receptor expressed in CHO cells; assay type: cell-based
[2] = molecular target: Histamine H3 receptor (Rattus norvegicus, UniProt Q9QYN8); test: Displacement of [3H]NAMH from rat cloned histamine 3 receptor expressed in CHO cells; assay type: cell-based
[3] = Solubility of the compound at pH 7.4; assay type: physicochemical; conditions: buffer
[4] = system: Rattus norvegicus; test: Induction of wake promoting activity in ip dosed EEG/EMG Sprague-Dawley rat model assessed as increase in waking time after 4 hrs; assay type: functional, organism-based
[5] = molecular target: Histamine H4 receptor (Homo sapiens) (UniProt Q9H3N8); test: Inhibition of human histamine H4 receptor at 10 uM
[6] = Ratio of drug level in brain to plasma in rat at 5 mg/kg, po; assay type: ADME, organism-based; design: dose 5 mg/kg, route oral; conditions: read-out: BPR
[7] = Clearance in rat at 1 mg/kg, iv after 6 hrs; assay type: ADME, organism-based; design: dose 1 mg/kg, route intravenous; conditions: in vivo
[8] = Half life in monkey liver microsomes; assay type: ADME, Macaca mulatta, Microsome; conditions: rhesus monkey
[9] = Half life in rat at 5 mg/kg, po after 6 hrs; assay type: ADME, organism-based; design: dose 5 mg/kg, route oral; conditions: in vivo
[10] = Half life in rat liver microsomes; assay type: ADME, Microsome
[11] = Half life in rat at 1 mg/kg, iv after 6 hrs; assay type: ADME, organism-based; design: dose 1 mg/kg, route intravenous; conditions: in vivo
[12] = Half life in human liver microsomes; assay type: ADME, Microsome
[13] = Half life in dog liver microsomes; assay type: ADME, Canis lupus familiaris, Microsome
[14] = molecular target: Histamine H1 receptor (Homo sapiens) (UniProt P35367); test: Inhibition of human histamine H1 receptor at 10 uM
[15] = Volume of distribution in rat at 1 mg/kg, iv after 6 hrs; assay type: ADME, organism-based; design: dose 1 mg/kg, route intravenous; conditions: in vivo
[16] = system: Rattus norvegicus; test: Induction of wake promoting activity in EEG/EMG Sprague-Dawley rat model assessed as increase in waking time at 30 mg/kg, ip after 4 hrs; assay type: functional; conditions: route intraperitoneal
[17] = molecular target: Cytochrome P450 2C19 (Homo sapiens, UniProt P33261); test: Inhibition of CYP2C19; assay type: ADME
[18] = molecular target: Cytochrome P450 2C9 (Homo sapiens, UniProt P11712); test: Inhibition of CYP2C9; assay type: ADME
[19] = molecular target: Histamine H2 receptor (Homo sapiens) (UniProt P25021); test: Inhibition of human histamine H2 receptor at 10 uM
[20] = molecular target: Sodium-dependent noradrenaline transporter (Homo sapiens) (UniProt P23975); test: Inhibition of NET at 10 uM
[21] = molecular target: Cytochrome P450 3A4 (Homo sapiens, UniProt P08684); test: Inhibition of CYP3A4; assay type: ADME
[22] = molecular target: T1, Histamine H3 receptor; test: Antagonist activity at human histamine 3 receptor by [35S]GTPgammaS binding assay; assay type: functional
[23] = system: Rattus norvegicus; test: Induction of wake promoting activity in EEG/EMG Sprague-Dawley rat model assessed as increase in waking time at 10 mg/kg, ip after 4 hrs; assay type: functional; conditions: route intraperitoneal
[24] = Oral bioavailability in rat at 5 mg/kg after 6 hrs; assay type: ADME, organism-based; conditions: in vivo
[25] = Cmax in rat at 5 mg/kg, po after 6 hrs; assay type: ADME, organism-based; design: dose 5 mg/kg, route oral; conditions: in vivo
[26] = molecular target: T2, Cytochrome P450 1A2 (Homo sapiens, UniProt P05177); test: Inhibition of CYP1A2; assay type: ADME
T2 sequence (P05177 whole entry): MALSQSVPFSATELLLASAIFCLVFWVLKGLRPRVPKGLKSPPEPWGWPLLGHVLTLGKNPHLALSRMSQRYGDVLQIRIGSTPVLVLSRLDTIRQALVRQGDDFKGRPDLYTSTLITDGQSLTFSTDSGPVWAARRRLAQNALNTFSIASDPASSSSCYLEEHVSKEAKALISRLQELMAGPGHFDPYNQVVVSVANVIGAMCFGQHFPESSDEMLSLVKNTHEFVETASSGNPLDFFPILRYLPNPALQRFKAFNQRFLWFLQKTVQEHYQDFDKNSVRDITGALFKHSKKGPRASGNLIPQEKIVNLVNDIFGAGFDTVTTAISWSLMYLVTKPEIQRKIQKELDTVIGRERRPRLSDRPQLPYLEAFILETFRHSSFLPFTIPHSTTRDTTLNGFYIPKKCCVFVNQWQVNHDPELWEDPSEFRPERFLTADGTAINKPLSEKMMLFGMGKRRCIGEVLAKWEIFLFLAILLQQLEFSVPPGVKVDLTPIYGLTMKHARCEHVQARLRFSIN

[27] = system: Rattus norvegicus; test: Inhibition of (R)-alpha-methyl histamine-induced dipsogenia in ip dosed rat; assay type: functional
[28] = molecular target: Cytochrome P450 2D6 (Homo sapiens, UniProt P10635); test: Inhibition of CYP2D6; assay type: ADME
[29] = Half life in mouse liver microsomes; assay type: ADME, Microsome
[30] = AUC (0 to 6 hrs) in rat at 5 mg/kg, po; assay type: ADME, organism-based; design: time < 6 hr, dose 5 mg/kg, route oral; conditions: plasma
[31] = molecular target: T1, Histamine H3 receptor; test: Inverse activity against human histamine 3 receptor by [35S]GTPgammaS binding assay; assay type: functional
[32] = Solubility of the compound at pH 2; assay type: physicochemical; conditions: buffer
[33] = molecular target: Voltage-gated inwardly rectifying potassium channel KCNH2 (Homo sapiens, UniProt Q12809); test: Inhibition of human ERG by patch express assay
[34] = Volume of distribution in iv dosed rat; assay type: ADME, organism-based; conditions: in vivo
[35] = Ratio of drug level in brain to plasma in iv dosed rat; assay type: ADME, organism-based; conditions: read-out: BPR
[36] = Clearance in iv dosed rat; assay type: ADME, organism-based; conditions: in vivo
[37] = Oral bioavailability in rat; assay type: ADME, organism-based; conditions: in vivo
[38] = Half life in iv dosed rat; assay type: ADME, organism-based; conditions: in vivo
[39] = system: Rattus norvegicus; test: Induction of wake promoting activity in EEG/EMG Sprague-Dawley rat model assessed as increase in waking time at 10 mg/kg, ip after 7 hrs; assay type: functional; conditions: route intraperitoneal
[40] = system: Rattus norvegicus; test: Induction of wake promoting activity in EEG/EMG Sprague-Dawley rat model assessed as increase in waking time at 3 mg/kg, ip after 4 hrs; assay type: functional; conditions: route intraperitoneal

Cytochrome P450 2D6, sequence (P10635 whole entry): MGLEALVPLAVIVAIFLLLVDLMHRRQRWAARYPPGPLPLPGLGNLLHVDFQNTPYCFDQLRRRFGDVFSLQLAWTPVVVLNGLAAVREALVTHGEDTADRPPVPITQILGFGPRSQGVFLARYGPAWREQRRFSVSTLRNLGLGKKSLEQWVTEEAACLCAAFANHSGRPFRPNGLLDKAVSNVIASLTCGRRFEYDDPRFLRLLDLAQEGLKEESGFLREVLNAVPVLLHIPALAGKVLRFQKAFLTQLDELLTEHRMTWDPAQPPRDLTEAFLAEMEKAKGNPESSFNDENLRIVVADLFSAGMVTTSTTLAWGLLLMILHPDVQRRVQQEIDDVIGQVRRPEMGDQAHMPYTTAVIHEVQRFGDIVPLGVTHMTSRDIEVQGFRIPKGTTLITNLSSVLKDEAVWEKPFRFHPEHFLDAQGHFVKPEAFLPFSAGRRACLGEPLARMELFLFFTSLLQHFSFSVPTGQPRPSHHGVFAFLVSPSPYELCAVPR
Cytochrome P450 3A4, sequence (P08684 whole entry): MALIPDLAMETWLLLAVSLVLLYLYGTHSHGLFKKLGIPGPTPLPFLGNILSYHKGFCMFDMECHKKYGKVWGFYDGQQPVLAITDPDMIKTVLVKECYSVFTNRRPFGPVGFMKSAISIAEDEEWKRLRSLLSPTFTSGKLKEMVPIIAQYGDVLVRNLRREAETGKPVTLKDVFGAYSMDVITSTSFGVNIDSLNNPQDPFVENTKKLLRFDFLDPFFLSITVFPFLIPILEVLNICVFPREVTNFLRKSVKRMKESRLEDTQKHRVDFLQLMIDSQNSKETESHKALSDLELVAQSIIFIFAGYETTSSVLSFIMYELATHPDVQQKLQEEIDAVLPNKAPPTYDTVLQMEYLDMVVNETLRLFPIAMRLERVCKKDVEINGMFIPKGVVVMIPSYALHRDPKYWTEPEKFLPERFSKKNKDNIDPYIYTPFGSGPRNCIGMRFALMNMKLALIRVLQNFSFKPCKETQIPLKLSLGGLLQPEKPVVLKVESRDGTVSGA
Histamine H3 receptor (Rattus norvegicus, UniProt Q9QYN8), sequence (Q9QYN8 whole entry): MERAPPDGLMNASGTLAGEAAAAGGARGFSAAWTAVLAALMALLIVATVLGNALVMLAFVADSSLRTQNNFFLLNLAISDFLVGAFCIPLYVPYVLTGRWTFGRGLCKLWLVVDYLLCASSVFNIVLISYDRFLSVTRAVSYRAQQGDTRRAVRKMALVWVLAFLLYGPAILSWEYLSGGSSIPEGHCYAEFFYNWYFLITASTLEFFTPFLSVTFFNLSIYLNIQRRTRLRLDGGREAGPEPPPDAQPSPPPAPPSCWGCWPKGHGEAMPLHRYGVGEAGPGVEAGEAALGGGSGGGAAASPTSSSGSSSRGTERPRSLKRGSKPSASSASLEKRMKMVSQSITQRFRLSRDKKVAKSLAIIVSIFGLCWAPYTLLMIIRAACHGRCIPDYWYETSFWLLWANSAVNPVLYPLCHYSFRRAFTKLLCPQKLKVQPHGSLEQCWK
Cytochrome P450 2C19, sequence (P33261 whole entry): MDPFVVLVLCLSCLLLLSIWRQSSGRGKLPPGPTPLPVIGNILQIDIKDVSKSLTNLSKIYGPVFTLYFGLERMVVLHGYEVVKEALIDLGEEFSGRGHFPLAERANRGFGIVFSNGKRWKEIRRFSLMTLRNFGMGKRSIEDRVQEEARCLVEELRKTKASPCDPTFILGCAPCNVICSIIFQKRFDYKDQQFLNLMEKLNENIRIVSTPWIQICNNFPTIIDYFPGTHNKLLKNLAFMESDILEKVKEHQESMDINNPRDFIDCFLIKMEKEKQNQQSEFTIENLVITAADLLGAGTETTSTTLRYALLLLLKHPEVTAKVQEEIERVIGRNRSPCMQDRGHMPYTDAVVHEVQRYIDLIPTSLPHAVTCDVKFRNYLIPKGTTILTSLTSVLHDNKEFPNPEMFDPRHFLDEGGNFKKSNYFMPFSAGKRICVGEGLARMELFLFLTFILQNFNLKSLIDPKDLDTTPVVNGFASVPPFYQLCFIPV
T1 sequence (Q9Y5N1 whole entry): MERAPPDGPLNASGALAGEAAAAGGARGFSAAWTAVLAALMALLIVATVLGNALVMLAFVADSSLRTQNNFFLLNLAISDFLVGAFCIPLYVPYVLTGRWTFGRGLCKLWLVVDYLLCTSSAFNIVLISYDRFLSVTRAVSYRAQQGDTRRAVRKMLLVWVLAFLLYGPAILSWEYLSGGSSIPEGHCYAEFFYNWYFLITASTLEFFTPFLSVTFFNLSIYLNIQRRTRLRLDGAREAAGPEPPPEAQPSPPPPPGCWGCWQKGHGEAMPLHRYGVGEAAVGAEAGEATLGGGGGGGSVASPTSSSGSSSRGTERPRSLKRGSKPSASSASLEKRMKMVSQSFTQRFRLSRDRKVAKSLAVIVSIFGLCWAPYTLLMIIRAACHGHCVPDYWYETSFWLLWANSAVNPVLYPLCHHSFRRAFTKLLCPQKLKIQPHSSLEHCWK
Cytochrome P450 2C9, sequence (P11712 whole entry): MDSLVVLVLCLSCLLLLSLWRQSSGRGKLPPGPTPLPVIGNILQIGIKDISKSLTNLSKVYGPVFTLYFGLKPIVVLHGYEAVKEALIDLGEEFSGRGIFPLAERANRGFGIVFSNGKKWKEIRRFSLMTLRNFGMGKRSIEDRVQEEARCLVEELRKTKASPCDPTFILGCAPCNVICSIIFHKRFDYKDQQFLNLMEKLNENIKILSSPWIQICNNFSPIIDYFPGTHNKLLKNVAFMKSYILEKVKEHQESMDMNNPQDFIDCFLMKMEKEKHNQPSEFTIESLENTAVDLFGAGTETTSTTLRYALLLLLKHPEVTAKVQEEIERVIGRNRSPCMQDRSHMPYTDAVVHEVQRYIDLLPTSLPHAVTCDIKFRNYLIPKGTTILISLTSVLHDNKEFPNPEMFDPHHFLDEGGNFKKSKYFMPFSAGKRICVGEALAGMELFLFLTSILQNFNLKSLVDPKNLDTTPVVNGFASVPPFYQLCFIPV
Sodium-dependent noradrenaline transporter (Homo sapiens), sequence (P23975 whole entry): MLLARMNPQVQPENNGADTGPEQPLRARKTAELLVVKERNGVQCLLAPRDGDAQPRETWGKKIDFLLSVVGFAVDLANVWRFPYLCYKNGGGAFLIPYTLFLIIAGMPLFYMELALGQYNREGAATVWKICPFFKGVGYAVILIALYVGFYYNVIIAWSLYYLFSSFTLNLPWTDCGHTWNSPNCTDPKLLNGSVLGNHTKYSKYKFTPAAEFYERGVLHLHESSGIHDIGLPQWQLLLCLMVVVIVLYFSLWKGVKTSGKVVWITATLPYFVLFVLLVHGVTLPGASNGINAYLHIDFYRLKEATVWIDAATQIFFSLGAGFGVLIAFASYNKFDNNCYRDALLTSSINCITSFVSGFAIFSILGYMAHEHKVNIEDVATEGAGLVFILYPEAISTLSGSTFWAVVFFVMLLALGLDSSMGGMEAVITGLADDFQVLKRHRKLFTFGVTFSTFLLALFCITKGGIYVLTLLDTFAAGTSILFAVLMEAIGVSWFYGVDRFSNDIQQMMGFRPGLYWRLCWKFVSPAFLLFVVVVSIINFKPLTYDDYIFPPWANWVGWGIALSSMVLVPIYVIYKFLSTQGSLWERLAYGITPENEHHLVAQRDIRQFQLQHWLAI
Histamine H2 receptor (Homo sapiens), sequence (P25021 whole entry): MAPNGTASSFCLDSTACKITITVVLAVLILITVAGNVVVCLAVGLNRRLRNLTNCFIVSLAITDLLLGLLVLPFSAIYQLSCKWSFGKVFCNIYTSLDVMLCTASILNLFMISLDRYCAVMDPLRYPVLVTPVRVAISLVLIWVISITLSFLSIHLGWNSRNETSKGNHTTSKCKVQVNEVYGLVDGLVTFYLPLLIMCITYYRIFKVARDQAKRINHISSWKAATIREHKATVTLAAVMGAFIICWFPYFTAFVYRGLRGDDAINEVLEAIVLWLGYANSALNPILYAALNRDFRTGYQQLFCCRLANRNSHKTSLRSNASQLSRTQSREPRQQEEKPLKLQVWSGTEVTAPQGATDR
Voltage-gated inwardly rectifying potassium channel KCNH2, sequence (Q12809 whole entry): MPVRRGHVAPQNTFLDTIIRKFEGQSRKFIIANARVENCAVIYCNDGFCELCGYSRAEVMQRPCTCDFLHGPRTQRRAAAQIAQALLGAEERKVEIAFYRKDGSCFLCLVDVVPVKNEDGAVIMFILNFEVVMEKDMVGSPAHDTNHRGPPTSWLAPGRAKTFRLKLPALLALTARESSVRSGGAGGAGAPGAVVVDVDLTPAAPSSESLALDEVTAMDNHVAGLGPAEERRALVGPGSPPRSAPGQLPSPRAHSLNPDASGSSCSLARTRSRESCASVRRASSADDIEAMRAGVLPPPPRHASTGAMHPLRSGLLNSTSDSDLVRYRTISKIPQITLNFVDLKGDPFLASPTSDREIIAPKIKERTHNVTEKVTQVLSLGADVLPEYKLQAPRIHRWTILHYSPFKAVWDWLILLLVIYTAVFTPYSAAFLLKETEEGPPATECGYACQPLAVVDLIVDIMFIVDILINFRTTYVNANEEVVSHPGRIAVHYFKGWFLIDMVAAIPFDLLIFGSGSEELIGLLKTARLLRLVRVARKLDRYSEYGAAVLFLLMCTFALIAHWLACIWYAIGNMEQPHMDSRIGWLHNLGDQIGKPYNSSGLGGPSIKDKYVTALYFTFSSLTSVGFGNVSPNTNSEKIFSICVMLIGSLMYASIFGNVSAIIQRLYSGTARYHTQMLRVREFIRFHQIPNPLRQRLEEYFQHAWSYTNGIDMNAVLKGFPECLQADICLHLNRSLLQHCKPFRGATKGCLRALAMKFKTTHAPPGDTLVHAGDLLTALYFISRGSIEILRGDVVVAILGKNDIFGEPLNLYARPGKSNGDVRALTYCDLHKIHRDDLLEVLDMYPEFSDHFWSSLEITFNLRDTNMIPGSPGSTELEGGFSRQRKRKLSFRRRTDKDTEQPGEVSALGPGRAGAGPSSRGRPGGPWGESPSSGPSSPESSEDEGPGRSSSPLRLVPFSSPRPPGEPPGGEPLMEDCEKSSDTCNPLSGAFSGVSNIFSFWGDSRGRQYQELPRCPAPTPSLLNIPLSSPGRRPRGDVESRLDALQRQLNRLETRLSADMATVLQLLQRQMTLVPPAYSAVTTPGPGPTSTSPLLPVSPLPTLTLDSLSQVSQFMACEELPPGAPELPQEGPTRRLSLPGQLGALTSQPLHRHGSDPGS

Ki [1]: 5.7 nM | Ki [2]: 11 nM
SMILES: C[C@@H]1CCCN1CCCOc1ccc(-c2ccc(=O)n(CC(F)(F)F)n2)cc1

Ki [1]: 3.4 nM | Ki [2]: 11 nM
SMILES: C[C@@H]1CCCN1CCCOc1ccc(-c2ccc(=O)n(CCF)n2)cc1

Ki [1]: 7.1 nM | Ki [2]: 40 nM
SMILES: C[C@@H]1CCCN1CCCOc1c(F)cc(-c2ccc(=O)[nH]n2)cc1F

solubility [3]: > 250 µg/mL | Ki [1]: 5.8 nM | inhibition [5]: < 30% | Kp [6]: 3.4 | clearance [7]: 38 mL/min/kg | Ki [2]: 27 nM | half-life [8]: > 40 min | half-life [9]: 96 min | half-life [10]: > 40 min | half-life [11]: 72 min | half-life [12]: > 40 min | half-life [13]: > 40 min | inhibition [14]: < 30% | Vd [15]: 4.5 L/kg | IC50 [17]: > 30000 nM | IC50 [18]: > 30000 nM | inhibition [19]: < 30% | inhibition [20]: > 70% | IC50 [21]: > 30000 nM | EC50 [22]: 1.3 nM | bioavailability [24]: 42% | Cmax [25]: 284 ng/mL | IC50 [26]: > 30000 nM | IC50 [28]: > 30000 nM | half-life [29]: > 40 min | AUC(0-t) at 6 h [30]: 936 ng·h/mL | Activity [31]: Active | solubility [32]: > 250 µg/mL
SMILES: C[C@@H]1CCCN1CCCOc1ccc(-c2ccc(=O)n(C)n2)cc1F
Activity [4]: Dose-dependent effect | Time [16]: 184 min | Time [23]: 157 min | ED50 [27]: 0.13 mg/kg | inhibition [27]: Dose-dependent effect

Ki [1]: 2.9 nM | Ki [2]: 12 nM
SMILES: Cc1cc(=O)[nH]nc1-c1ccc(OCCCN2CCC[C@H]2C)cc1

Kp [6]: 3.5 | half-life [9]: 138 min | AUC(0-t) at 6 h [30]: 538 ng·h/mL
SMILES: C[C@@H]1CCCN1CCCOc1ccc(-c2ccc(=O)n(C)n2)cc1

Ki [1]: 1.4 nM | Ki [2]: 7.9 nM | half-life [8]: > 40 min | half-life [10]: > 40 min | half-life [12]: > 40 min | half-life [13]: > 40 min | Vd [34]: 3.9 L/kg | Kp [35]: 0.5 | clearance [36]: 29 mL/min/kg | IC50 [17]: > 30000 nM | IC50 [18]: > 30000 nM | IC50 [21]: > 30000 nM | IC50 [26]: > 30000 nM | IC50 [28]: > 30000 nM | bioavailability [37]: 56% | half-life [29]: > 40 min | half-life [38]: 90 min
SMILES: C[C@@H]1CCCN1CCCOc1ccc(-c2ccc(=O)n(-c3ncccn3)n2)cc1
IC50 [33]: > 10000 nM

Ki [1]: 35 nM | Ki [2]: 70 nM
SMILES: C[C@@H]1CCCN1CCCOc1ccc(-c2ccc(=O)[nH]n2)cn1

Ki [1]: 4.4 nM | Ki [2]: 14 nM
SMILES: C[C@@H]1CCCN1CCCOc1ccc(-c2ccc(=O)n(C)n2)cc1Cl

Ki [1]: 11 nM | Ki [2]: 41 nM
SMILES: C[C@@H]1CCCN1CCCOc1c(F)cc(-c2ccc(=O)n(C)n2)cc1F

Ki [1]: 3.4 nM | Ki [2]: 8.7 nM
SMILES: Cc1cc(-c2ccc(OCCCN3CCC[C@H]3C)cc2)n[nH]c1=O

Ki [1]: 12 nM | Ki [2]: 70 nM | Kp [35]: < 1 | bioavailability [37]: < 10%
SMILES: C[C@@H]1CCCN1CCCOc1ccc(-c2n[nH]c(=O)cc2-c2ccccn2)cc1

solubility [3]: > 250 µg/mL | Ki [1]: 2.4 nM | Kp [6]: 2.5 | clearance [7]: 37 mL/min/kg | Ki [2]: 4.6 nM | half-life [8]: > 40 min | half-life [9]: 258 min | half-life [10]: > 40 min | half-life [11]: 48 min | half-life [12]: > 40 min | half-life [13]: > 40 min | Vd [15]: 2.5 L/kg | IC50 [17]: > 30000 nM | IC50 [18]: > 30000 nM | inhibition [20]: 19% | IC50 [21]: > 30000 nM | EC50 [22]: 2.1 nM | bioavailability [24]: 38% | Cmax [25]: 146 ng/mL | IC50 [26]: > 30000 nM | IC50 [28]: > 30000 nM | half-life [29]: > 40 min | AUC(0-t) at 6 h [30]: 892 ng·h/mL | Activity [31]: Active | solubility [32]: > 250 µg/mL
SMILES: C[C@H](COc1ccc(-c2ccc(=O)n(C)n2)cc1)CN1CCC[C@H]1C
Time [39]: 196 min | Time [23]: 231 min | ED50 [27]: 0.02 mg/kg | inhibition [27]: Dose-dependent effect | Time [40]: 166 min

Ki [1]: 15 nM | Ki [2]: 52 nM
SMILES: C[C@@H](COc1ccc(-c2ccc(=O)n(C)n2)cc1)CN1CCC[C@H]1C

Ki [1]: 16 nM | Ki [2]: 69 nM
SMILES: C[C@@H]1CCCN1CCCOc1ccc(-c2ccc(=O)[nH]n2)c(F)c1

Ki [1]: 38 nM | Ki [2]: 111 nM
SMILES: C[C@@H]1CCCN1CCCOc1ccc(-c2ccc(=O)[nH]n2)cc1C#N

Ki [1]: 10 nM | Ki [2]: 22 nM
SMILES: C[C@@H]1CCCN1CCCOc1ccc(-c2ccc(=O)n(-c3ccccn3)n2)cc1

Ki [1]: 3.1 nM | Ki [2]: 10 nM | Kp [35]: < 1 | bioavailability [37]: < 10%
SMILES: C[C@@H]1CCCN1CCCOc1ccc(-c2cc(-c3ccccn3)c(=O)[nH]n2)cc1

Ki [1]: 3 nM | Ki [2]: 9.5 nM
SMILES: C[C@@H]1CCCN1CCCOc1ccc(-c2ccc(=O)n(CCO)n2)cc1

Ki [1]: 152 nM | Ki [2]: 229 nM
SMILES: COc1cc(OCCCN2CCC[C@H]2C)ccc1-c1ccc(=O)[nH]n1
